Experimental data taken from article PMC10009755, “Discovery and Characterization of BAY-805, a Potent and Selective Inhibitor of Ubiquitin-Specific Protease USP21” (Journal of Medicinal Chemistry, 2023).
Converted amounts (≈) assume the structure as drawn.

Legend:
USP21 = target: T1, USP21 (Homo sapiens, UniProt Q9UK80); assay: SPR binding; conditions: single-cycle kinetics, 15 °C
T1 construct: made in house; host or cells: E. coli BL21(DE3)
Method: For binding analysis, a multi-cycle protocol was chosen with a contact time of 60 s, a flow rate of 30 μL/min, and a dissociation time of 200 s. Binding constants were calculated from the steady state using Biacore Insight Evaluation Software, assuming a 1:1 binding model as an average of four titrations. […] Immobilization levels were kept similar to the above. […] The running buffer of the duplicate measurements is 10 mM HEPES, pH 7.4, 150 mM NaCl, 0,005% surfactant P20 further supplemented with 2 mg/mL BSA and 1% DMSO. Affinity and kinetic analysis were performed using Biacore Insight Evaluation Software on double reference subtracted sensorgrams.

log D measurement (HPLC) = format: physicochemical; conditions: reverse-phase HPLC, pH 7.5, pH 7.5, HPLC method; read-out: logD7.5
Method: log D values at pH 7.5 were recorded using an indirect method for determining hydrophobicity constants by reverse-phase HPLC. A series of compounds with well-known log D values were used for calibration. Test compounds were injected into the same HPLC system. The lipophilicity of compounds was then assessed by comparison to the calibration curve.

Aqueous solubility = format: physicochemical; conditions: PBS pH 6.5, pH 6.5, PBS pH 6.5
Method: Test compounds were applied as DMSO solutions or directly from powder. After the addition of the buffer, solutions were shaken at rt for 24 h. The undissolved material was removed by filtration or centrifugation. The compound dissolved in the supernatant was quantified by HPLC-UV or HPLC-MS/MS.

in vitro = in vitro ADME; conditions: human, Caco-2, pH 7.2
Method: Caco-2 cells [purchased from the German Collection of Microorganisms and Cell Cultures (DSMZ)] were seeded at a density of 4.5 × 10^4 cells/well on 24-well insert plates [0.4 μm pore size, 0.3 cm^2 (Costar)] and grown for 13–15 days in DMEM medium supplemented with 10% fetal calf serum (FCS), 1% GlutaMAX (100×, Gibco), 100 U/mL penicillin, 100 μg/mL streptomycin (Gibco), and 1% nonessential amino acids (100×, Thermo Fischer Scientific). […] The medium was changed every 2–3 days.
The bidirectional transport assay for the evaluation of Caco-2 permeability was undertaken in 24-well insert plates using a robotic system (Tecan). Before the assay was run, the culture medium was replaced by a transport medium (FCS-free HEPES carbonate transport buffer pH 7.2). For the assessment of monolayer integrity, the transepithelial electrical resistance (TEER) was measured. Only monolayers with a TEER of at least 400 Ω·cm^2 were used. Test compounds were pre-dissolved in DMSO and added either to the apical or basolateral compartment at a final concentration of 2 μM. The evaluation was performed in triplicate. […] The efflux ratio (ER) basolateral (B) to apical (A) was calculated by dividing Papp B–A by Papp A–B.

NF-κB activation = assay: NF-κB reporter assay; format: cell-based; conditions: HEK293T cells, up to 10 μM
Method: Yang and colleagues reported that USP21 inhibition induces NF-κB activation by preventing deubiquitination of RIP1.[15] K63 ubiquitinated RIP1 is required for NF-κB activation, and thus USP21-mediated deubiquitination of RIP1 shuts down the NF-κB pathway.
Four hours after replating, cells were treated with compounds or DMSO (note: DMSO concentrations were kept consistent across all cells). Promega Dual-Luciferase Reporter Assay kit was then used to prepare samples for Firefly and Renilla signal measurement on a CLARIOstar microplate reader (BMG) 20 h after compound treatment. Relative luciferase units were calculated by normalizing the Firefly signal to the background Renilla signal, followed by normalization to DMSO controls of wild-type USP21.

[1] = target: T2, C-terminal HiBiT-tagged USP21 (Homo sapiens, UniProt Q9UK80); assay: USP21 HiBiT CETSA; format: cell-based; conditions: 49 °C, HEK293T cells
T2 construct: expressed in transfected cells; host or cells: HEK293T
T2 sequence (Q9UK80 1-565): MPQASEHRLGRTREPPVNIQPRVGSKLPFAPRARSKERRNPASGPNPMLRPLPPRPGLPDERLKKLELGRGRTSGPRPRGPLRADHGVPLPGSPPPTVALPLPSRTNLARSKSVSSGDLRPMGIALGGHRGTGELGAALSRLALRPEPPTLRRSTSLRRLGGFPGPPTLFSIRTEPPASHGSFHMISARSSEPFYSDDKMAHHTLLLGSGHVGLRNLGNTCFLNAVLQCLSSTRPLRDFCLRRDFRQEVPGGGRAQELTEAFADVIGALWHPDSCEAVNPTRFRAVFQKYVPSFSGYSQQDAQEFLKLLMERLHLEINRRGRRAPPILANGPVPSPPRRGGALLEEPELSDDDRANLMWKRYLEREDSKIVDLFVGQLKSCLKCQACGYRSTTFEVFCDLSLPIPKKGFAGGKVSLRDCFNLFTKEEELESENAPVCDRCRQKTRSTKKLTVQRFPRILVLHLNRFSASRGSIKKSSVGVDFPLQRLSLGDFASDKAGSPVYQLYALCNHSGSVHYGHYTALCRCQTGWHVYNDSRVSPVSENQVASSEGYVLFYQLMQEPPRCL
Method: In particular, we utilized a HiBiT CETSA assay format[42],[43] conducted in intact HEK293T cells. Cells were transfected with USP21 fused to a small proluminescent NanoLuc HiBiT tag, which, when complemented with the Large BiT NanoLuc fragment, produces a quantifiable luminescence signal.
HEK293T cells were seeded in a six-well plate at 8 × 10^5 cells/well in 2 mL of DMEM supplemented with 10% FBS, penicillin (100 U/mL), and streptomycin (100 μg/mL) and transfected 4 h after seeding using an X-tremeGENE HP transfection reagent, following the manufacturer’s instructions with a total of 2 μg of plasmid constructs (C-terminally tagged USP21 HiBiT and empty pCDNA3.1 vector). […] The breathable paper adhesive film was then replaced with a PCR adhesive film, and cells were heated at indicated temperatures in an Applied Biosystems VeritiPro thermal cycler for 3 min, followed by 3 min incubation at rt before the addition of LgBiT solution (200 nM LgBiT, 2% NP-40, protease inhibitors (Roche cOmplete, ethylenediaminetetraacetic acid (EDTA)-free Protease Inhibitor) in OptiMEM no phenol red (Gibco)) to lyse cells.

Adrenergic α2B = target: T3, Adrenergic α2B (Homo sapiens, UniProt P18089); assay: Eurofins Panlabs safety screen; format: binding
T3 construct: Eurofins Panlabs

Dopamine D2L = Dopamine D2L (Homo sapiens, UniProt P14416); assay: Eurofins Panlabs safety screen; format: binding
Dopamine D2L, sequence (P14416 whole entry): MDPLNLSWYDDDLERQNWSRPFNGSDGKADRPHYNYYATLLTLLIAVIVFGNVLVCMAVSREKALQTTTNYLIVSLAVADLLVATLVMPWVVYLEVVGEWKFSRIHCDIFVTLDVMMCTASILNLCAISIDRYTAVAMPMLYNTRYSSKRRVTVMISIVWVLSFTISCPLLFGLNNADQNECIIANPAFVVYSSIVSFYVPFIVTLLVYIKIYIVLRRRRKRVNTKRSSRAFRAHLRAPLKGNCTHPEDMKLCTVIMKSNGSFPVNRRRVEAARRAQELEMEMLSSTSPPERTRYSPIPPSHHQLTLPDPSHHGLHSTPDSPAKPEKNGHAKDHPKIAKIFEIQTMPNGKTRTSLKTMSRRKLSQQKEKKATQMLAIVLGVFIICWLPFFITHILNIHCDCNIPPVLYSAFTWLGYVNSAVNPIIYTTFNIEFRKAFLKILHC

Opiate δ1 (OP1, DOP) = target: T4, Opiate δ1 (OP1, DOP) (Homo sapiens, UniProt P41143); assay: Eurofins Panlabs safety screen; format: binding
T4 construct: Eurofins Panlabs

[2] = target: T5, Serotonin (5-Hydroxytryptamine) 5-HT1A (Homo sapiens, UniProt P08908); assay: Eurofins Panlabs safety screen; format: binding
T5 construct: Eurofins Panlabs

Muscarinic M2 = target: T6, Muscarinic M2 (Homo sapiens, UniProt P08172); assay: Eurofins Panlabs safety screen; format: binding
T6 construct: Eurofins Panlabs
T6 sequence (P08172 whole entry): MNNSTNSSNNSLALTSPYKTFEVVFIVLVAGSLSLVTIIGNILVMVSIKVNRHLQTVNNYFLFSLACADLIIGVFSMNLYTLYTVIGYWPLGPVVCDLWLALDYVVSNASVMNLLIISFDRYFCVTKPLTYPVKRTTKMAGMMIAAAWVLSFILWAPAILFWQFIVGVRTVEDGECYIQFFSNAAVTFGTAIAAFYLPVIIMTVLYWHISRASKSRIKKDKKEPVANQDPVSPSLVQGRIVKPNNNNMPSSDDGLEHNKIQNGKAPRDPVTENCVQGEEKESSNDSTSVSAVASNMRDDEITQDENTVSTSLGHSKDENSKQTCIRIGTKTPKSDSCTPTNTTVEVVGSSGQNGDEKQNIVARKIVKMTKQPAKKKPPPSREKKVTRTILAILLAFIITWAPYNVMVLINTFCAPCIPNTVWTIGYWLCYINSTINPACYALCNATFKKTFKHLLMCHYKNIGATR

Adrenergic α2C = target: T7, Adrenergic α2C (Homo sapiens, UniProt P18825); assay: Eurofins Panlabs safety screen; format: binding
T7 construct: Eurofins Panlabs
T7 sequence (P18825 whole entry): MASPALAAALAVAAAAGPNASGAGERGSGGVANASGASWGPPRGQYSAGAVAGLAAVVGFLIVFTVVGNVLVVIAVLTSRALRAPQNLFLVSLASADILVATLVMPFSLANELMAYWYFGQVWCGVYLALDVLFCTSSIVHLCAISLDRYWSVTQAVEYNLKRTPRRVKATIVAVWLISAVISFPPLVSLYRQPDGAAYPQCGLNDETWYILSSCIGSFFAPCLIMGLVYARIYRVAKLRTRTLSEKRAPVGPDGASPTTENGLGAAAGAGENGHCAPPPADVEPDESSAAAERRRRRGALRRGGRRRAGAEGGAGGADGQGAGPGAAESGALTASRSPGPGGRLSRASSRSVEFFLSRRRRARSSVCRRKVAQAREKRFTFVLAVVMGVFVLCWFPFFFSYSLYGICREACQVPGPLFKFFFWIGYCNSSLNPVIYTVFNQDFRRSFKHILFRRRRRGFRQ

Adrenergic α1A = target: T8, Adrenergic α1A (Homo sapiens, UniProt P35348); assay: Eurofins Panlabs safety screen; format: binding
T8 construct: Eurofins Panlabs
T8 sequence (P35348 whole entry): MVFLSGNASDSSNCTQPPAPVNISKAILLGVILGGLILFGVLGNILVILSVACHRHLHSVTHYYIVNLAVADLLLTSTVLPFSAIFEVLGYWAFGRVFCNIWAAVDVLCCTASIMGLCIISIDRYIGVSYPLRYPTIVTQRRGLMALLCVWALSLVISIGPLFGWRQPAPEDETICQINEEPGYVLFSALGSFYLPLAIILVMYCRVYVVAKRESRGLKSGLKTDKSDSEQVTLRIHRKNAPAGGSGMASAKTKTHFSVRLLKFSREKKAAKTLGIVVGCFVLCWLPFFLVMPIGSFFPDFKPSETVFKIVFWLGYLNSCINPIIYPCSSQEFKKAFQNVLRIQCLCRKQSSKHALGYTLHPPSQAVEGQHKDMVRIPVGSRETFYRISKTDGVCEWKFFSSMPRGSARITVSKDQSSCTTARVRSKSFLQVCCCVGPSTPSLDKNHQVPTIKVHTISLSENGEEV

Dopamine D2S = Dopamine D2S (Homo sapiens, UniProt P14416); assay: Eurofins Panlabs safety screen; format: binding
Dopamine D2S, sequence (P14416 1-414 isoform P14416-2): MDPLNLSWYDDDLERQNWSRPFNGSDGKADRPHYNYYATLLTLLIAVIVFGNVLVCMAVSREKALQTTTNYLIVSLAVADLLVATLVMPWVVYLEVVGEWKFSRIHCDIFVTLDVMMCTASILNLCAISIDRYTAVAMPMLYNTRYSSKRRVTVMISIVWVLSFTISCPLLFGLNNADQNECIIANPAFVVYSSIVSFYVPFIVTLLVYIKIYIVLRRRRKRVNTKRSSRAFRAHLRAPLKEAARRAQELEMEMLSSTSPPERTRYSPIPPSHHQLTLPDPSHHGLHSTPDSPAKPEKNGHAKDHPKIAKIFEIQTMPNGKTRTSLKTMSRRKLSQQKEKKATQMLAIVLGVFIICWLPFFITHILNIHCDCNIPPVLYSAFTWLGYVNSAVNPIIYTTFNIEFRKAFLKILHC

Muscarinic M1 = target: T9, Muscarinic M1 (Homo sapiens, UniProt P11229); assay: Eurofins Panlabs safety screen; format: binding
T9 construct: Eurofins Panlabs

Opiate μ (OP3, MOP) = target: T10, Opiate μ (OP3, MOP) (Homo sapiens, UniProt P35372); assay: Eurofins Panlabs safety screen; format: binding
T10 construct: Eurofins Panlabs

[3] = target: T11, Cholinesterase, Acetyl, ACES (Homo sapiens, UniProt P22303); assay: Eurofins Panlabs safety screen; format: biochemical
T11 construct: Eurofins Panlabs
T11 sequence (P22303 32-614): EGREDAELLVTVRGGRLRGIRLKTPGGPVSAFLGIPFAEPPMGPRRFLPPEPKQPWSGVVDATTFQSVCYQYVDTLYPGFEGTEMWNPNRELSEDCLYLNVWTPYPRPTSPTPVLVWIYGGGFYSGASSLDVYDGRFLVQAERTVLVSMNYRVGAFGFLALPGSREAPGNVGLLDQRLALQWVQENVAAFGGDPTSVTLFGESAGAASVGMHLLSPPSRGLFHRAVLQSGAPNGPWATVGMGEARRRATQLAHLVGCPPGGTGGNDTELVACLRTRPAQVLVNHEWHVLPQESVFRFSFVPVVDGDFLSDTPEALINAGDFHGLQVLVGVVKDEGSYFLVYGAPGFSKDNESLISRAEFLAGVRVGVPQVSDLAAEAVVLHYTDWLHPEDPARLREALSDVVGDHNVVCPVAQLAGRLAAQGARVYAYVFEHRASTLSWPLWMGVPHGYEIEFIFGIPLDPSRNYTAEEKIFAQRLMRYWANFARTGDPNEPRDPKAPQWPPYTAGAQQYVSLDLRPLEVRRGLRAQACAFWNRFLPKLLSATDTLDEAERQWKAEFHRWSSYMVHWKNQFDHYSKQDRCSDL

Fms(h) = target: T12, Fms(h) (Homo sapiens, UniProt P07333); assay: Eurofins kinase panel; format: biochemical
T12 construct: purchased Eurofins (formerly Millipore/Upstate) KinaseProfiler

Muscarinic M4 = target: T13, Muscarinic M4 (Homo sapiens, UniProt P08173); assay: Eurofins Panlabs safety screen; format: binding
T13 construct: Eurofins Panlabs
T13 sequence (P08173 whole entry): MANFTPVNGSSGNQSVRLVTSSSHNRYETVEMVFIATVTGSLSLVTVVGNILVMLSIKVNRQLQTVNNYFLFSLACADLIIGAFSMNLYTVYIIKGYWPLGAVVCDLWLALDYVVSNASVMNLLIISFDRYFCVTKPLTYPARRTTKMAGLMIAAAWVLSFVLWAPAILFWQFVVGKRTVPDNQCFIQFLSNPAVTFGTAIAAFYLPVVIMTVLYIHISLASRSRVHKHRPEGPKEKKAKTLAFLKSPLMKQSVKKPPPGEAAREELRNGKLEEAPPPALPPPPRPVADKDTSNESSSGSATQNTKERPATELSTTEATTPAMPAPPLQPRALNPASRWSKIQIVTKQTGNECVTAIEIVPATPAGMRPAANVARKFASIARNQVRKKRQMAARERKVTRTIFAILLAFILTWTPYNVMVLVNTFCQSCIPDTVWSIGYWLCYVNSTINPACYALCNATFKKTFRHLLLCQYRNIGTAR

Dopamine D3 = Dopamine D3 (Homo sapiens, UniProt P35462); assay: Eurofins Panlabs safety screen; format: binding
Dopamine D3, sequence (P35462 whole entry): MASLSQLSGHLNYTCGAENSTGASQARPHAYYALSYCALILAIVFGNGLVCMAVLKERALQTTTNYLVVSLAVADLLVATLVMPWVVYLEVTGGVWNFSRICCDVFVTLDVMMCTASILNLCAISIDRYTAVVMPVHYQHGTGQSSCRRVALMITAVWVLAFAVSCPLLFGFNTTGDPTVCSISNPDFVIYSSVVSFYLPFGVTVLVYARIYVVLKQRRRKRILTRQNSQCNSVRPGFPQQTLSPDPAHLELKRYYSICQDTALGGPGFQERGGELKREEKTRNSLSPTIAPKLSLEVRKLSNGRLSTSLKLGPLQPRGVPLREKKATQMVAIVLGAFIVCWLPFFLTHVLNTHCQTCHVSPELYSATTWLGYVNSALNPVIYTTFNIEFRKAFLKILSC

Cannabinoid CB2 = Cannabinoid CB2 (Homo sapiens, UniProt P34972); assay: Eurofins Panlabs safety screen; format: binding
[4] = target: T14, Serotonin (5-Hydroxytryptamine) 5-HT2B (Homo sapiens, UniProt P41595); assay: Eurofins Panlabs safety screen; format: binding
T14 construct: Eurofins Panlabs
T14 sequence (P41595 whole entry): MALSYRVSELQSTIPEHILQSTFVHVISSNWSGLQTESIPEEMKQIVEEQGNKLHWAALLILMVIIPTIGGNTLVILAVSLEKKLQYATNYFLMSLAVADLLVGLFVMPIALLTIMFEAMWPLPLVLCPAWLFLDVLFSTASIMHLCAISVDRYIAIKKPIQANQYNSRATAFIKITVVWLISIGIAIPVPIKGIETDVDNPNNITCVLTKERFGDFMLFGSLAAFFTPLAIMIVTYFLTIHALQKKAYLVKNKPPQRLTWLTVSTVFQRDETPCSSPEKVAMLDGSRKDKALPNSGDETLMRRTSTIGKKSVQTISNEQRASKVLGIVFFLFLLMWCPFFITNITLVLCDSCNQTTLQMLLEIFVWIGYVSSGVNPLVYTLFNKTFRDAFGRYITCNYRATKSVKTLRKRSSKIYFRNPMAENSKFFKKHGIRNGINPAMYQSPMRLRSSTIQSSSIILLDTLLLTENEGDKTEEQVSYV

PRP4(h) = target: T15, PRP4(h) (Homo sapiens, UniProt Q13523); assay: Eurofins kinase panel; format: biochemical
T15 construct: purchased Eurofins (formerly Millipore/Upstate) KinaseProfiler

[5] = target: T16, Nicotinic Acetylcholine α3β4 (Homo sapiens, UniProt P30926+P32297); assay: Eurofins Panlabs safety screen; format: binding
T16 construct: Eurofins Panlabs

Cannabinoid CB1 = Cannabinoid CB1 (Homo sapiens, UniProt P21554); assay: Eurofins Panlabs safety screen; format: binding
Cannabinoid CB1, sequence (P21554 whole entry): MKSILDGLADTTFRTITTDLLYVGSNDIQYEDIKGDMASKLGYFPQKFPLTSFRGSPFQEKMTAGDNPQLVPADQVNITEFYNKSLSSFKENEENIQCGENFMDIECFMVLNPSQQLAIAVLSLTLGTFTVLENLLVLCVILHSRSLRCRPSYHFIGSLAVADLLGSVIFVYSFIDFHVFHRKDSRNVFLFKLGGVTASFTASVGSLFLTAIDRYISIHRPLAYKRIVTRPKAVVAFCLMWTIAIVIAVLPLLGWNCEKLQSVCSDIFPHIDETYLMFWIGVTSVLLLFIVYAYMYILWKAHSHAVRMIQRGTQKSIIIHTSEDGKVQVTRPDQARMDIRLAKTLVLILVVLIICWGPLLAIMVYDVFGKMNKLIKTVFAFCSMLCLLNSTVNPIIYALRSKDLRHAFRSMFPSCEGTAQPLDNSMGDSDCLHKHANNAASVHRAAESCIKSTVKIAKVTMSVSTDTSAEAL

Androgen (Testosterone) = Androgen (Testosterone) (Homo sapiens, UniProt P10275); assay: Eurofins Panlabs safety screen; format: binding
[6] = target: T17, Serotonin (5-Hydroxytryptamine) 5-HT2A (Homo sapiens, UniProt P28223); assay: Eurofins Panlabs safety screen; format: binding
T17 construct: Eurofins Panlabs

Muscarinic M3 = target: T18, Muscarinic M3 (Homo sapiens, UniProt P20309); assay: Eurofins Panlabs safety screen; format: binding
T18 construct: Eurofins Panlabs

[7] = target: T19, Serotonin (5-Hydroxytryptamine) 5-HT2C (Homo sapiens, UniProt P28335); assay: Eurofins Panlabs safety screen; format: binding
T19 construct: Eurofins Panlabs

Dopamine D1 = Dopamine D1 (Homo sapiens, UniProt P21728); assay: Eurofins Panlabs safety screen; format: binding
Adrenergic α2A = target: T20, Adrenergic α2A (Homo sapiens, UniProt P08913); assay: Eurofins Panlabs safety screen; format: binding
T20 construct: Eurofins Panlabs

Work on `N#Cc1ccc(Cc2nnc(NC(=O)[C@@H](CO)NC(=O)C3(C(F)(F)F)CCCCC3)s2)cc1` [Compound 18, OC[C@@H](NC(=O)C1(CCCCC1)C(F)(F)F)C(=O)Nc2nnc(Cc3ccc(cc3)C#N)s2] yielded a Kd (USP21) of 0.0058 µM, a chromatographic logD (log D measurement (HPLC)) of 2.5 and a solubility at 24 h (Aqueous solubility) of 91.2 µM (≈ 43.9 µg/mL). The Papp A→B at 2 h, 2 µM (in vitro; 2 μM, 2 h) was 1.4 ×10⁻⁶ cm/s, the efflux ratio at 2 h, 2 µM (in vitro; Papp B–A / Papp A–B, read-out: Caco-2 efflux ratio (ER)) was 14 and the “NF-κB activation (in words)” value (NF-κB activation) was “cellular activity was not observed”. The “cellular thermal stabilization of USP21 (in words)” value [1] was “strong cellular target engagement”.

Compound `CC(C)C[C@@H](NC(=O)C1(C(F)(F)F)CCCCC1)C(=O)Nc1nnc(Cc2ccc(C#N)cc2)s1` [Compound 21, N-[(1R)-1-[[5-[(4-Cyanophenyl)methyl]-1,3,4-thiadiazol-2-yl]carbamoyl]-3-methyl-butyl]-1-(trifluoromethyl)cyclohexanecarboxamide] has an inhibition at 10 µM (Adrenergic α2B) of 4%, an inhibition at 10 µM (Dopamine D2L) of 8% and an inhibition at 10 µM (Opiate δ1 (OP1, DOP)) of -5%. It also gave an inhibition at 10 µM [2] of 2%, an inhibition at 10 µM (Muscarinic M2) of 2% and an inhibition at 10 µM (Adrenergic α2C) of 6%. For the same compound, the inhibition at 10 µM (Adrenergic α1A) was 1%, the inhibition at 10 µM (Dopamine D2S) was 24% and the inhibition at 10 µM (Muscarinic M1) was 18%. It also gave an inhibition at 10 µM (Opiate μ (OP3, MOP)) of -1%, an IC50 [3] of 7.61 µM and an inhibition at 10 µM [3] of 72%. For the same compound, the inhibition at 0.1 µM ([3]; IC50 determination, 0.1 µM) was 15%, the inhibition at 0.3 µM ([3]; IC50 determination, 0.3 µM) was 16% and the inhibition at 1 µM ([3]; IC50 determination, 1 µM) was 11%. For the same compound, the inhibition at 3 µM ([3]; IC50 determination, 3 µM) was 4%, the inhibition at 10 µM ([3]; IC50 determination) was 74% and the inhibition at 30 µM ([3]; IC50 determination, 30 µM) was 74%. It also gave an inhibition at 10 µM (Fms(h)) of 3.41%, an inhibition at 10 µM (Muscarinic M4) of -4% and an inhibition at 10 µM (Dopamine D3) of 9%. The inhibition at 10 µM (Cannabinoid CB2) was 1%, the inhibition at 10 µM [4] was 3% and the inhibition at 10 µM (PRP4(h)) was 8.18%. It also gave an inhibition at 10 µM [5] of -3%, an inhibition at 10 µM (Cannabinoid CB1) of 8% and an inhibition at 10 µM (Androgen (Testosterone)) of 4%. For the same compound, the inhibition at 10 µM [6] was 4%, the inhibition at 10 µM (Muscarinic M3) was 7% and the inhibition at 10 µM [7] was -5%. It also gave an inhibition at 10 µM (Dopamine D1) of -3% and an inhibition at 10 µM (Adrenergic α2A) of 14%.
